Consider 21 compounds from patent publication US20260265238A1, “COMPOUNDS AND PHARMACEUTICAL COMPOSITIONS THAT DEGRADE SWI/SNF-RELATED MATRIX-ASSOCIATED ACTIN-DEPENDENT REGULATOR OF CHROMATIN SUBFAMILY A” (Plexium, Inc., priority 2023, published 2026).

Assay [1] deals with T1, SMARCA2-HiBiT HeLa cells (protein which is expressed from the SMARCA2 gene) (Homo sapiens, UniProt P51531).
T1 construct: protein which is expressed from the SMARCA2 and SMARCA4 genes; host or cells: HeLa (SMARCA2-HiBiT engineered line)
T1 sequence (P51531 whole entry): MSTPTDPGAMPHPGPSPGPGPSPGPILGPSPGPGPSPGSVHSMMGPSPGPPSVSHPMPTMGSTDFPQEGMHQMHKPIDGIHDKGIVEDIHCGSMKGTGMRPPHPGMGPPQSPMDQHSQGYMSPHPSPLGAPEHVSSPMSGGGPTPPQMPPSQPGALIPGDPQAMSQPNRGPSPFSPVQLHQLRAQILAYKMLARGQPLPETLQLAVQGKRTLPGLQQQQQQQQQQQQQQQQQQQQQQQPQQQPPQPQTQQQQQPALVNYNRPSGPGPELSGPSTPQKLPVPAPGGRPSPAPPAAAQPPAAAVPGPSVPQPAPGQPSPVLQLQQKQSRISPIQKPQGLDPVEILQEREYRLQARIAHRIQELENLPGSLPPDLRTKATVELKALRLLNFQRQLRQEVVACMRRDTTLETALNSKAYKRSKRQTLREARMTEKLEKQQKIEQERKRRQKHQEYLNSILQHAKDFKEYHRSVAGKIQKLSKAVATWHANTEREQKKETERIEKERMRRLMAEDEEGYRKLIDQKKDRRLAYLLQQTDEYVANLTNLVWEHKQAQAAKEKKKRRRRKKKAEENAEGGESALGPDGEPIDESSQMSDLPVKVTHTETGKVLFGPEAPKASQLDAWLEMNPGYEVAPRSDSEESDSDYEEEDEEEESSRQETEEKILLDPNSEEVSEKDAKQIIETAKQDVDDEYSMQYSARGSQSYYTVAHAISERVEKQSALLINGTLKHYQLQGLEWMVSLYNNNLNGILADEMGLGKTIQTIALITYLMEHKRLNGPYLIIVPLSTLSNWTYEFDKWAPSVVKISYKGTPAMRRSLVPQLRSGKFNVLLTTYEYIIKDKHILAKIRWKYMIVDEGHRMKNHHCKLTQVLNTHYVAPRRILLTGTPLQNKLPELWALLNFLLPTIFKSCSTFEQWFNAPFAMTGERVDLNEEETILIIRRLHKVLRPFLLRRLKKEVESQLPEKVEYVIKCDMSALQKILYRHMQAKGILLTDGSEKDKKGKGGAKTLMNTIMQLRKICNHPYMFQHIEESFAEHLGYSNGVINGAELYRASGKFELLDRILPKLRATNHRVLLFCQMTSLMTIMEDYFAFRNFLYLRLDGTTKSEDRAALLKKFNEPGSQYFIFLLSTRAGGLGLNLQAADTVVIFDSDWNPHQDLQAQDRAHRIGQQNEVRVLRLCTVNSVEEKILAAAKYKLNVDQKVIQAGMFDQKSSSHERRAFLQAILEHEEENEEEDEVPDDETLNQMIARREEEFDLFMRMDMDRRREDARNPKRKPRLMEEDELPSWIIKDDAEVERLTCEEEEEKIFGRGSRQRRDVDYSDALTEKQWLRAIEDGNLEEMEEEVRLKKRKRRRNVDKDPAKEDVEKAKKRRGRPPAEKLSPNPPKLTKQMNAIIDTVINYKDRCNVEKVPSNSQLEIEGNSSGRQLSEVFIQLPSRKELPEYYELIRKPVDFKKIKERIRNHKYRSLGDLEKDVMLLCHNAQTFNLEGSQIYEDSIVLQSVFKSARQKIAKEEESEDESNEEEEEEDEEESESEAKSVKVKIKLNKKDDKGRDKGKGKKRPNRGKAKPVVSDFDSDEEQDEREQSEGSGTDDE
The assay is described as follows: SMARCA2 degradation assay (HiBiT-fusion HeLa cell line, 24 h, luminescence). The assay is classed as cell-based. Put shortly:
(§1)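 In this 24-hour cellular degradation readout, HiBiT-tagged HeLa lines received compound at up to typically 10 μM down to 300 pM in 10 points. After lysis with LgBiT and substrate, luminescence signals were used to build dose-response curves for DC50.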
A general note: HiBiT is a short tag that completes a luciferase, so light tracks the accessible tagged protein.

The target of assay [2] is T2, SMARCA4-HiBiT HeLa cells (protein which is expressed from the SMARCA4 gene) (Homo sapiens, UniProt P51532).
T2 construct: protein which is expressed from the SMARCA2 and SMARCA4 genes; host or cells: HeLa (SMARCA4-HiBiT engineered line)
T2 sequence (P51532 whole entry): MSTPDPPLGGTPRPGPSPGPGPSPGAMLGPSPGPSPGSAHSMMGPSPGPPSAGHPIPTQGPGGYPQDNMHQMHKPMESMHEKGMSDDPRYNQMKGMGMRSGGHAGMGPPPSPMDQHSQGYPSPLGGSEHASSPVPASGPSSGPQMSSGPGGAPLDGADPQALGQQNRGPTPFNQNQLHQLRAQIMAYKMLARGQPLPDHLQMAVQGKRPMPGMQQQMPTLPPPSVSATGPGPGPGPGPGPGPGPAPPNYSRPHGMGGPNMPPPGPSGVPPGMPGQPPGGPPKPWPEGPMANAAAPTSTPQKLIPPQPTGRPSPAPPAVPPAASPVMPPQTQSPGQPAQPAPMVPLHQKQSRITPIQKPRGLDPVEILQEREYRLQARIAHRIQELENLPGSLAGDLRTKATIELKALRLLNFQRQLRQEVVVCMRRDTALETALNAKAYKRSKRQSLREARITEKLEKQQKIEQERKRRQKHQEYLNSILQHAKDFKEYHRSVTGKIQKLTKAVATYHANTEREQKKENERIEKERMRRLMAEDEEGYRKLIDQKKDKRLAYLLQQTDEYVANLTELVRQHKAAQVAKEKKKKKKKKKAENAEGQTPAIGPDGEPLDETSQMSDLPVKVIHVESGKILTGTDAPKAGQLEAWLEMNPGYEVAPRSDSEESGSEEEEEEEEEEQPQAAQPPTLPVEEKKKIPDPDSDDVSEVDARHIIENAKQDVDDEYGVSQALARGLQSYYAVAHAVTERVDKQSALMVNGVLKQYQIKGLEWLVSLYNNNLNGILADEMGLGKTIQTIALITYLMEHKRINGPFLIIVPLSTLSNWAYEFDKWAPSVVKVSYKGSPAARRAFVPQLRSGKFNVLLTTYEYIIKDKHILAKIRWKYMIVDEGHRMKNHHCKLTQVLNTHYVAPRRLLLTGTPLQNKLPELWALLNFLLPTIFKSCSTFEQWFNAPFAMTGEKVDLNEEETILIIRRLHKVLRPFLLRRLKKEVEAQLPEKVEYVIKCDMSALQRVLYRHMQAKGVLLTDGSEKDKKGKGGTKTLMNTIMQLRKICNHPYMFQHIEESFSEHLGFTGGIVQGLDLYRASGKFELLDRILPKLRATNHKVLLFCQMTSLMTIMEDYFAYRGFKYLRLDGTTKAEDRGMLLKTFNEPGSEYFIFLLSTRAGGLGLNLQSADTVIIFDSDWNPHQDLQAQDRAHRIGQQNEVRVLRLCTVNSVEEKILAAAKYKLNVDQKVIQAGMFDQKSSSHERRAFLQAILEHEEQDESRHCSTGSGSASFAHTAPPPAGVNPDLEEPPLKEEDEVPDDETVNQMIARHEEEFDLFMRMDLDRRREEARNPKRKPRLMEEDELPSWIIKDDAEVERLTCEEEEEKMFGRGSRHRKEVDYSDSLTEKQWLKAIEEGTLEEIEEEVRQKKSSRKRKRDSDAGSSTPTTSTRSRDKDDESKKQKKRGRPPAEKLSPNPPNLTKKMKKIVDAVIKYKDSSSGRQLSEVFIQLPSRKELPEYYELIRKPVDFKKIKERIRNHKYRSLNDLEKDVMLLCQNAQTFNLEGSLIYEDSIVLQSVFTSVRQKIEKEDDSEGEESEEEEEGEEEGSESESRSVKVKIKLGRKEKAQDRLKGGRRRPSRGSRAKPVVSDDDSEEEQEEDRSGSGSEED
The assay is described as follows: SMARCA4 degradation assay (HiBiT-fusion HeLa cell line, 24 h, luminescence). The assay is classed as cell-based. Put shortly: as §1

In general, DC50 refers to the concentration at which degradation of the target reaches its halfway point. A high value points to degradation only at high concentration. The term inhibition denotes the share of the control response that was lost under treatment. Read a high inhibition as strong suppression. In the case of `C[C@@H]1CCN(c2cc(-c3ccccc3O)nnc2N)CCN1c1ccnc(C#CCN2CC[C@@H](F)C2)n1` [Compound P-236, o-{5-[(R)-4-(2-{3-[(R)-3-fluoro-1-pyrrolidinyl]-1-propynyl}-4-pyrimidinyl)-5-methyl-1,4-diazepan-1-yl]-6-amino-3-pyridaziny1} phenol], in assay [1], the DC50 is < 50 nM and the “SMARCA2 % Degradation @ 1 μM” value is on record as “++ (++=30-70%)”. In addition, in assay [2], the DC50 is < 50 nM and the inhibition at 1 µM is < 30%.

`C[C@@H]1CCN(c2cc(-c3ccccc3O)nnc2N)CCN1c1ccnc(C#CCN2CCC3(CCC3)C2)n1` [Compound P-237, o-{5-[(R)-4-(2-{3-(6-aza-6-spiro| 3.4 | octyl)-1-propynyl}-4-pyrimidinyl)-5-methyl-1,4-diazepan-1-yl]-6-amino-3-pyridazinyl} phenol]: in assay [1], the DC50 is < 50 nM and the “SMARCA2 % Degradation @ 1 μM” value was “+++ (+++=>70%)”. For the same compound, in assay [2], the DC50 is < 50 nM and the inhibition at 1 µM lay within 30 to 70%.

With `C[C@@H]1CCN(c2cc(-c3ccccc3O)nnc2N)CCN1c1ccnc(C#CCNC(=O)OC(C)(C)C)n1` [Compound P-238], in assay [1], the DC50 was 50 to 500 nM and the “SMARCA2 % Degradation @ 1 μM” value is listed as “+++ (+++=>70%)”. In addition, in assay [2], the DC50 is 50 to 500 nM and the inhibition at 1 µM lay within 30 to 70%.

As for `Cc1c(C(=O)NCC#Cc2nccc(N3CCN(c4cc(-c5ccccc5O)nnc4N)CC[C@H]3C)n2)nn(C)c1C` [Compound P-239, N-[3-(4-{ (R)-4-[3-amino-6-(o-hydroxyphenyl)-4-pyridazinyl]-7-methyl-1,4-diazepan-1-y1}-2-pyrimidinyl)-2-propynyl]-1-methyl-4,5-dimethyl-3-pyrazolecarboxamide], in assay [1], the DC50 is 50 to 500 nM and the “SMARCA2 % Degradation @ 1 μM” value is given as “++ (++=30-70%)”. In addition, in assay [2], the DC50 lay within 50 to 500 nM and the inhibition at 1 µM lay within 30 to 70%.

Turning to `C[C@@H]1CCN(c2cc(-c3ccccc3O)nnc2N)CCN1c1ccnc(C#CCNC(=O)c2cccnc2)n1` [Compound P-240, N-[3-(4-{ (R)-4-[3-amino-6-(o-hydroxyphenyl)-4-pyridazinyl]-7-methyl-1,4-diazepan-1-yl}-2-pyrimidinyl)-2-propynyl]nicotinamide], in assay [1], the DC50 was 500 to 5000 nM and the “SMARCA2 % Degradation @ 1 μM” value is on record as “++ (++=30-70%)”. Also, in assay [2], the half-maximal degradation concentration (DC50) lay within 500 to 5000 nM and the inhibition at 1 µM was < 30%.

As for `Nc1nnc(-c2ccccc2O)cc1N1CC2CCC(C1)N2c1ccnc(C#CCNC(=O)c2cccnc2)n1` [Compound P-241, N-[3-(4-{3-[3-amino-6-(o-hydroxyphenyl)-4-pyridazinyl]-3,8-diazabicyclo[3.2.1]oct-8-yl}-2-pyrimidinyl)-2-propynyl]nicotinamide], in assay [1], the DC50 lay in the range of 50 to 500 nM and the “SMARCA2 % Degradation @ 1 μM” value is “++ (++=30-70%)”. In assay [2], this compound yielded a DC50 of 50 to 500 nM and an inhibition at 1 µM of 30 to 70%.

With `CO[C@@H]1CCN(CC#Cc2nccc(N3CCN(c4cc(-c5ccccc5O)nnc4N)CC[C@H]3C)n2)C1` [Compound P-242, o-{5-[(R)-4-(2-{3-[(R)-3-methoxy-1-pyrrolidinyl]-1-propynyl}-4-pyrimidinyl)-5-methyl-1,4-diazepan-1-yl]-6-amino-3-pyridazinyl} phenol], in assay [1], the DC50 was < 50 nM and the “SMARCA2 % Degradation @ 1 μM” value is given as “++ (++=30-70%)”. Also, in assay [2], the DC50 was < 50 nM and the inhibition at 1 µM is 30 to 70%.

With `C[C@@H]1CCN(c2cc(-c3ccccc3O)nnc2N)CCN1c1ccnc(C#CCN2CCC(F)(F)C2)n1` [Compound P-243, o-{5-[(R)-4-{2-[3-(3,3-difluoro-1-pyrrolidinyl)-1-propynyl]-4-pyrimidinyl}-5-methyl-1,4-diazepan-1-yl]-6-amino-3-pyridazinyl} phenol], in assay [1], the DC50 was in the range of 50 to 500 nM and the “SMARCA2 % Degradation @ 1 μM” value is on record as “++ (++=30-70%)”. In assay [2], this compound showed a DC50 of 50 to 500 nM and an inhibition at 1 µM of 30 to 70%.

`C[C@@H]1CCN(c2cc(-c3ccccc3O)nnc2N)CCN1c1ccnc(C#CCN2CC[C@H](F)C2)n1` [Compound P-244, o-{5-[(R)-4-(2-{3-[(S)-3-fluoro-1-pyrrolidinyl]-1-propynyl}-4-pyrimidinyl)-5-methyl-1,4-diazepan-1-yl]-6-amino-3-pyridaziny1}phenol]: in assay [1], the DC50 is < 50 nM and the “SMARCA2 % Degradation @ 1 μM” value is “++ (++=30-70%)”. In assay [2], the DC50 was < 50 nM and the inhibition at 1 µM is 30 to 70%.

Turning to `C[C@@H]1CCN(c2cc(-c3ccccc3O)nnc2N)CCN1c1ccnc(C#CCN2CCC(C#N)C2)n1` (stereo partly drawn) [Compound P-245], in assay [1], the DC50 is 50 to 500 nM and the “SMARCA2 % Degradation @ 1 μM” value was “+++ (+++=>70%)”. Further, in assay [2], the DC50 lay within 50 to 500 nM and the inhibition at 1 µM lay in the range of 30 to 70%.

Turning to `CC1CCC(C)N1CC#Cc1nccc(N2CCN(c3cc(-c4ccccc4O)nnc3N)CC[C@H]2C)n1` (stereo partly drawn) [Compound P-246, o-{5-[(R)-4-{2-[3-(2,5-dimethyl-1-pyrrolidinyl)-1-propynyl]-4-pyrimidinyl}-5-methyl-1,4-diazepan-1-yl]-6-amino-3-pyridazinyl}phenol], in assay [1], the DC50 was < 50 nM and the “SMARCA2 % Degradation @ 1 μM” value was “++ (++=30-70%)”. Also, in assay [2], the DC50 is < 50 nM and the inhibition at 1 µM was in the range of 30 to 70%.

With `C[C@@H]1CCN(c2cc(-c3ccccc3O)nnc2N)CCN1c1nc(C#CCn2ccnc2)ncc1F` [Compound P-247, o-{5-[(R)-4-{5-fluoro-2-[3-(1-imidazolyl)-1-propynyl]-4-pyrimidinyl}-5-methyl-1,4-diazepan-1-yl]-6-amino-3-pyridaziny1}phenol], in assay [1], the DC50 lay within 50 to 500 nM and the “SMARCA2 % Degradation @ 1 μM” value is recorded as “++ (++=30-70%)”. In assay [2], this compound came in with a DC50 of 50 to 500 nM and an inhibition at 1 µM of 30 to 70%.

With `C[C@@H]1CCN(c2cc(-c3ccccc3O)nnc2N)CCN1c1nc(C#CCNC(=O)OC(C)(C)C)ncc1F` [Compound P-248], in assay [1], the DC50 was 500 to 5000 nM and the “SMARCA2 % Degradation @ 1 μM” value was “++ (++=30-70%)”. In addition, in assay [2], the DC50 was in the range of 500 to 5000 nM and the inhibition at 1 µM is < 30%.

As for `CC1CC(C)N1CC#Cc1nccc(N2CCN(c3cc(-c4ccccc4O)nnc3N)CC[C@H]2C)n1` (stereo partly drawn) [Compound P-249, o-{5-[(R)-4-{2-[3-(2,4-dimethyl-1-azetidinyl)-1-propynyl]-4-pyrimidinyl}-5-methyl-1,4-diazepan-1-yl]-6-amino-3-pyridaziny1} phenol], in assay [1], the DC50 is < 50 nM and the “SMARCA2 % Degradation @ 1 μM” value is reported as “++ (++=30-70%)”. In addition, in assay [2], the DC50 is < 50 nM and the inhibition at 1 µM was < 30%.

Take `C[C@H]1CCN(c2cc(-c3ccccc3O)nnc2N)CCN1c1ccnc(C#CCN(C)C)n1` [Compound P-250]: in assay [1], the DC50 was < 50 nM and the “SMARCA2 % Degradation @ 1 μM” value was “+++ (+++=>70%)”. Also, in assay [2], the DC50 was < 50 nM and the inhibition at 1 µM was > 70%.

As for `C[C@@H]1CCN(c2cc(-c3ccccc3O)nnc2N)CCN1c1ccnc(C#CCOCC2CC(N(C)C)C2)n1` (stereo partly drawn) [Compound P-251, o-{5-[(R)-4-[2-(3-{[3-(dimethylamino)cyclobutyl]methoxy}-1-propynyl)-4-pyrimidinyl]-5-methyl-1,4-diazepan-1-yl]-6-amino-3-pyridazinyl}phenol], in assay [1], the DC50 is 50 to 500 nM and the “SMARCA2 % Degradation @ 1 μM” value is “+++ (+++=>70%)”. Besides, in assay [2], the DC50 fell in the range of 50 to 500 nM and the inhibition at 1 µM lay within 30 to 70%.

In the case of `C[C@@H]1CCN(c2cc(-c3ccccc3O)nnc2N)CCN1c1ccnc(C#CCN2CC(F)(F)C2)n1` [Compound P-252, o-{5-[(R)-4-{2-[3-(3,3-difluoro-1-azetidinyl)-1-propynyl]-4-pyrimidinyl}-5-methyl-1,4-diazepan-1-yl]-6-amino-3-pyridazinyl}phenol], in assay [1], the DC50 was 50 to 500 nM and the “SMARCA2 % Degradation @ 1 μM” value is “++ (++=30-70%)”. In assay [2], the DC50 fell in the range of 50 to 500 nM and the inhibition at 1 µM is 30 to 70%.

For the compound `Nc1nnc(-c2ccccc2O)cc1N1CCC2(CCN(c3ccnc(C#CCn4ccnc4)n3)CC2)C1` [Compound P-253, o-[6-amino-5-(8-{2-[3-(1-imidazolyl)-1-propynyl]-4-pyrimidinyl}-2,8-diaza-2-spiro [4.5]decyl)-3-pyridazinyl]phenol], in assay [1], the DC50 is 50 to 500 nM and the “SMARCA2 % Degradation @ 1 μM” value is “++ (++=30-70%)”. In assay [2], this compound gave a DC50 of 50 to 500 nM and an inhibition at 1 µM of 30 to 70%.

On to `CC(C#Cc1nccc(N2CCN(c3cc(-c4ccccc4O)nnc3N)CC[C@H]2C)n1)N(C)C` (stereo partly drawn) [Compound P-254, o-{5-[(R)-4-{2-[3-(dimethylamino)-1-butynyl]-4-pyrimidinyl}-5-methyl-1,4-diazepan-1-yl]-6-amino-3-pyridazinyl}phenol], for which, in assay [1], the 50% degradation concentration (DC50) is < 50 nM and the “SMARCA2 % Degradation @ 1 μM” value was “++ (++=30-70%)”. Also, in assay [2], the DC50 was < 50 nM and the inhibition at 1 µM was in the range of 30 to 70%.

For the compound `N#CCNCC#Cc1nccc(N2CCCN(c3cc(-c4ccccc4O)nnc3N)CC2)n1` [Compound P-255, [3-(4-{4-[3-amino-6-(o-hydroxyphenyl)-4-pyridaziny1]-1,4-diazepan-1-yl}-2-pyrimidinyl)-2-propynylamino]acetonitrile], in assay [1], the DC50 lay within 50 to 500 nM and the “SMARCA2 % Degradation @ 1 μM” value is “++ (++=30-70%)”. In assay [2], this compound registered a DC50 of 50 to 500 nM and an inhibition at 1 µM of 30 to 70%.

In the case of `CN1CCC(C#Cc2nccc(N3CCCN(c4cc(-c5ccccc5O)nnc4N)CC3)n2)CC1` [Compound P-256, o-[6-amino-5-(4-{2-[2-(1-methyl-4-piperidyl)ethynyl]-4-pyrimidinyl}-1,4-diazepan-1-yl)-3-pyridazinyl]phenol], in assay [1], the DC50 lay in the range of 50 to 500 nM and the “SMARCA2 % Degradation @ 1 μM” value is on record as “++ (++=30-70%)”. In assay [2], the DC50 lay within 500 to 5000 nM and the inhibition at 1 µM was in the range of 30 to 70%.
